Assay results published in US4257941A, “Polycyclic nitrogen-containing compounds” (BASF Aktiengesellschaft, priority 1976, dated 1981).

Test system: lawns
Experiment: Long-term action on lawns (Example 14)
Assay type: in vivo
Settings: for First cutting, green weight relative / First cutting, growth height relative / Second cutting, green weight relative / Second cutting, growth height relative / Third cutting, green weight relative: control 100

| Structure (SMILES) | First cutting, green weight (0.5 kg/ha) | First cutting, growth height (0.5 kg/ha) | Second cutting, green weight (0.5 kg/ha) | Second cutting, growth height (0.5 kg/ha) | Third cutting, green weight (0.5 kg/ha) | First cutting, green weight relative (0.5 kg/ha) | First cutting, growth height relative (0.5 kg/ha) | Second cutting, green weight relative (0.5 kg/ha) | Second cutting, growth height relative (0.5 kg/ha) | Third cutting, green weight relative (0.5 kg/ha) | First cutting, green weight (1.0 kg/ha) | First cutting, growth height (1.0 kg/ha) | Second cutting, green weight (1.0 kg/ha) | Second cutting, growth height (1.0 kg/ha) | Third cutting, green weight (1.0 kg/ha) | First cutting, green weight relative (1.0 kg/ha) | First cutting, growth height relative (1.0 kg/ha) | Second cutting, green weight relative (1.0 kg/ha) | Second cutting, growth height relative (1.0 kg/ha) | Third cutting, green weight relative (1.0 kg/ha) | other results |
| --- | --- | --- | --- | --- | --- | --- | --- | --- | --- | --- | --- | --- | --- | --- | --- | --- | --- | --- | --- | --- | --- |
| Fc1ccc(N2N=NC3C4CC(C5N=NC45)C32)cc1 (centres unmarked) | 23.1 g | 15.0 cm | 21.8 g | 10.0 cm | 14.6 g | 65.4 | 83.3 | 81.6 | 68.0 | 96.1 | 20.5 g | 12.5 cm | 21.4 g | 9.0 cm | 13.5 g | 58.1 | 69.5 | 80.1 | 61.2 | 88.8 | First cutting, green weight (2.0 kg/ha): 9.8 g; First cutting, growth height (2.0 kg/ha): 7.5 cm; Second cutting, green weight (2.0 kg/ha): 10.1 g; Second cutting, growth height (2.0 kg/ha): 5.0 cm; Third cutting, green weight (2.0 kg/ha): 9.5 g; First cutting, green weight relative (2.0 kg/ha): 27.8; First cutting, growth height relative (2.0 kg/ha): 41.7; Second cutting, green weight relative (2.0 kg/ha): 37.8; Second cutting, growth height relative (2.0 kg/ha): 34.0; Third cutting, green weight relative (2.0 kg/ha): 62.5; First cutting, green weight (4.0 kg/ha): 7.9 g; First cutting, growth height (4.0 kg/ha): 6.5 cm; Second cutting, green weight (4.0 kg/ha): 7.1 g; Second cutting, growth height (4.0 kg/ha): 2.0 cm; Third cutting, green weight (4.0 kg/ha): 7.9 g; First cutting, green weight relative (4.0 kg/ha): 22.4; First cutting, growth height relative (4.0 kg/ha): 36.1; Second cutting, green weight relative (4.0 kg/ha): 26.6; Second cutting, growth height relative (4.0 kg/ha): 13.6; Third cutting, green weight relative (4.0 kg/ha): 52.0 |
| Cc1ccccc1N1N=NC2C3CC(C4N=NC34)C21 (centres unmarked) | 26.8 g | 14.0 cm | 23.5 g | 13.0 cm | 16.5 g | 75.9 | 77.8 | 88.0 | 88.4 | 108.6 | 25.5 g | 14.0 cm | 22.0 g | 12.5 cm | 16.3 g | 72.2 | 77.8 | 82.4 | 85.0 | 107.2 | First cutting, green weight (2.0 kg/ha): 20.0 g; First cutting, growth height (2.0 kg/ha): 12.5 cm; Second cutting, green weight (2.0 kg/ha): 21.4 g; Second cutting, growth height (2.0 kg/ha): 22.0 cm; Third cutting, green weight (2.0 kg/ha): 15.7 g; First cutting, green weight relative (2.0 kg/ha): 56.7; First cutting, growth height relative (2.0 kg/ha): 69.5; Second cutting, green weight relative (2.0 kg/ha): 80.1; Second cutting, growth height relative (2.0 kg/ha): 74.8; Third cutting, green weight relative (2.0 kg/ha): 103.3; First cutting, green weight (4.0 kg/ha): 13.2 g; First cutting, growth height (4.0 kg/ha): 9.5 cm; Second cutting, green weight (4.0 kg/ha): 15.3 g; Second cutting, growth height (4.0 kg/ha): 7.5 cm; Third cutting, green weight (4.0 kg/ha): 13.9 g; First cutting, green weight relative (4.0 kg/ha): 37.4; First cutting, growth height relative (4.0 kg/ha): 52.8; Second cutting, green weight relative (4.0 kg/ha): 57.3; Second cutting, growth height relative (4.0 kg/ha): 51.0; Third cutting, green weight relative (4.0 kg/ha): 91.4 |
